Experimental data: US11873303B2, “Substituted pyrazoles as type II IRAK inhibitors” (Merck Patent GmbH, priority 2018, dated 2024)

Assays:
[1] = test system: TLR7 induced IL-6 secretion in human mononuclear cells (PBMC's); assay: TLR7 induced IL-6 in human PBMC's; assay type: cell-based; details: TLR7 ligand 2 uM overnight, IL-6 AlphaLISA
Protocol: TLR7 Induced IL-6 in Human PBMC's
Human PBMC assay was used as one of the functional assays to monitor the activity of IRAK1 and IRAK4 small molecule inhibitors on TLR7 induced IL-6 secretion in human mononuclear cells (PBMC's). Human PBMCs were prepared from buffy coats (whole blood enriched with leukocytes and platelets) obtained from healthy volunteers used either fresh or frozen were plated in assay media (RPMI+2% P/S/L-glu+10% HI-FBS) and pre-treated with compounds in DMSO/media (range of concentrations from 25 uM to 0.4 nM) or controls (0.25% DMSO) for 30 minutes at 37° C. in assay media. Following pre-treatment with IRAK1 and IRAK4 inhibitors, PBMC's were stimulated with TLR7 specific ligand (2 uM) overnight (16-18 hrs) at 37° C. After incubation supernatant was transferred to 384 well PE AlphaPlate-384 and IL-6 was quantified using Perkin Elmer IL-6 Alpha LISA kit (AL223C). Plates were read on an Envision® plate reader with Alpha Technology®.

[2] = target: T1, IRAK1 (human purified recombinant enzyme His-TEV-IRAK1 (194-712)) (Homo sapiens, UniProt P51617); assay: IRAK1 enzymatic assay (ADP-Glo luminescence); assay type: biochemical; details: human recombinant IRAK1, ATP 1 μM
T1 construct: His-TEV-IRAK1 (194-712); His (N); TEV cleavage site (N)
Protocol: IRAK1 is a human purified recombinant enzyme (His-TEV-IRAK1 (194-712)). In this assay, IRAK1 hydrolysed ATP and autophosphorylated. Measurement of IRAK-1 inhibition was performed in 384-well format based on luminescence assay (ADP-Glo™ Kinase Assay from Promega). Purified human recombinant IRAK1 (0.3 μg/ml) and serial diluted compounds in DMSO (range of concentration from 10 μM to 0.5 nM) or controls (1% DMSO) were incubated for 15 minutes at RT in assay buffer containing 50 mM Hepes pH 7.0, Fatty acid-free BSA 0.1%, Dithiothreitol (DTT) 2 mM, MgCl2 10 mM, EGTA 0.5 mM, Triton X-100 0.01%. The kinase reaction was then initiated by the addition of ATP at a concentration of 1 μM. After 2 hours of incubation at RT, the reaction was stopped and the unconsumed ATP depleted by the addition of ADP-Glo™ Reagent according to supplier instructions. After 40 minutes of incubation at RT, the Kinase Detection Reagent was then added to the assay plate according to supplier instructions. After 20 minutes of incubation at RT, the luminescence signal was measured with a luminometer (PerkinElmer Envision or equivalent reader).

[3] = target: T2, IRAK4 (human purified recombinant enzyme His-TEV-IRAK4 (1-460)) (Homo sapiens, UniProt Q9NWZ3); assay: IRAK4 enzymatic assay (ADP-Glo luminescence); assay type: biochemical; details: human recombinant IRAK4, ATP 2 μM, STK1-biotin peptide
T2 construct: His-TEV-IRAK4 (1-460); His (N); TEV cleavage site (N)
T2 sequence (Q9NWZ3 1-460): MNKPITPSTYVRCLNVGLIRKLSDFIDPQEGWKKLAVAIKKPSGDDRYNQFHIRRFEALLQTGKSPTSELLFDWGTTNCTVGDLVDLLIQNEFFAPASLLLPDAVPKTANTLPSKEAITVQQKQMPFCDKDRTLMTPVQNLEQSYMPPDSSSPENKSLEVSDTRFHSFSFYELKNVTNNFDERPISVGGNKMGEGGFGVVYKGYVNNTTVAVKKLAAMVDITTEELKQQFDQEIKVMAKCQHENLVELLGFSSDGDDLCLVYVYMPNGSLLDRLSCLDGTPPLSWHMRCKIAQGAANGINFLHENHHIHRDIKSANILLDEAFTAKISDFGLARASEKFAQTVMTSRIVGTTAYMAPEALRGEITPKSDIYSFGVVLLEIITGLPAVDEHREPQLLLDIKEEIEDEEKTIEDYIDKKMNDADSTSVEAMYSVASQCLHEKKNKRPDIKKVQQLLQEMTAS
Protocol: IRAK4 is a human purified recombinant enzyme (His-TEV-IRAK4 (1-460)). In this assay, IRAK4 hydrolysed ATP, autophosphorylated and phosphorylated a Serine/Threonine generic peptidic substrate (STK: 61ST1BLC from CisBio International). Measurement of IRAK-4 inhibition was performed in 384-well format based on a luminescence assay (ADP-Glo™ Kinase Assay from Promega). Purified human recombinant IRAK4 (0.3 μg/ml) and serial diluted compounds in DMSO (range of concentration from 10 μM to 0.5 nM) or controls (1% DMSO) were incubated for 15 minutes at RT in assay buffer containing 50 mM Hepes pH 7.0, Fatty acid-free BSA 0.1%, Dithiothreitol (DTT) 2 mM, MgCl2 10 mM, EGTA 0.5 mM, Triton X-100 0.01%, MnCl2 5 mM. The kinase reaction was then initiated by the addition of ATP (2 μM) and the peptidic substrate STK1-biotin peptide (300 nM). After 2 hours of incubation at RT, the reaction was stopped and the unconsumed ATP depleted by the addition of ADP-Glo™ Reagent according to supplier instructions. After 40 minutes of incubation at RT, the Kinase Detection Reagent was then added to the assay plate according to supplier instructions. After 20 minutes of incubation at RT, the luminescence signal was measured with a plate-reading luminometer (PerkinElmer Envision or equivalent reader).

T1 sequence (P51617 194-712): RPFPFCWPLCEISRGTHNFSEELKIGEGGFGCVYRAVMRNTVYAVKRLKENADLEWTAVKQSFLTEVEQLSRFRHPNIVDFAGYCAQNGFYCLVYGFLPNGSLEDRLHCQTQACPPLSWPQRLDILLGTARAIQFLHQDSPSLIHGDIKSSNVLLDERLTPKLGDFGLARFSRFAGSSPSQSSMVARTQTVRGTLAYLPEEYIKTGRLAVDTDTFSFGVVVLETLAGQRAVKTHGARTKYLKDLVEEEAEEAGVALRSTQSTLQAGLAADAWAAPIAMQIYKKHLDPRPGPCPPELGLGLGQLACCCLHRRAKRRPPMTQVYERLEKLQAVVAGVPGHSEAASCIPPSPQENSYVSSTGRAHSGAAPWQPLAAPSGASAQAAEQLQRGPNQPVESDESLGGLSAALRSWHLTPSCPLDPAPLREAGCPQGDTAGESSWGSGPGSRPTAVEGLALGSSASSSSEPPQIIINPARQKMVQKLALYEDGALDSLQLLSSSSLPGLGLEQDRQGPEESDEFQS

Row | IC50 [2] | IC50 [3] | Compound | IC50 [1]
1 | < 0.1 µM | 0.1 to 1 µM | CC(C)c1ccc(-n2nc(C(C)(C)C)cc2NC(=O)Nc2ccc(-c3nn(C)c4ncnc(N)c34)cc2)cc1 [Example 1, 1-(4-{4-amino-1-methyl-1H-pyrazolo[3,4-d]pyrimidin-3-yl}phenyl)-3-{3-tert-butyl-1-[4-(propan-2-yl)phenyl]-1H-pyrazol-5-yl}urea] | < 0.1 µM
2 | < 0.1 µM | < 0.1 µM | Cc1ccc(-n2nc(C(C)(C)C)cc2NC(=O)Nc2ccc(-c3nn(C)c4ncnc(N)c34)c(F)c2)cc1 [Example 2, 1-[4-(4-Amino-1-methyl-1H-pyrazolo[3,4-d]pyrimidin-3-yl)-3-fluoro-phenyl]-3-(5-tert-butyl-2-p-tolyl-2H-pyrazol-3-yl)-urea] | < 0.1 µM
3 | < 0.1 µM | 0.1 to 1 µM | CC(C)c1ccc(-n2nc(C(C)(C)C)cc2NC(=O)Nc2ccc(-c3nn(C)c4ncnc(N)c34)c(F)c2)cc1 [Example 3, 1-[4-(4-Amino-1-methyl-1H-pyrazolo[3,4-d]pyrimidin-3-yl)-3-fluoro-phenyl]-3-[5-tert-butyl-2-(4-isopropyl-phenyl)-2H-pyrazol-3-yl]-urea] | < 0.1 µM
4 | < 0.1 µM | < 0.1 µM | Cc1ccc(-n2nc(C(C)(C)C)cc2NC(=O)Nc2ccc(-c3nn(C)c4ncnc(N)c34)cc2F)cc1 [Example 4, 1-[4-(4-Amino-1-methyl-1H-pyrazolo[3,4-d]pyrimidin-3-yl)-2-fluoro-phenyl]-3-(5-tert-butyl-2-p-tolyl-2H-pyrazol-3-yl)-urea] | < 0.1 µM
5 | < 0.1 µM | < 0.1 µM | Cc1ccc(-n2nc(C(C)(C)C)cc2NC(=O)Nc2ccc(-c3nn(C)c4ncnc(N)c34)cc2Cl)cc1 [Example 5, 1-[4-(4-Amino-1-methyl-1H-pyrazolo[3,4-d]pyrimidin-3-yl)-2-chloro-phenyl]-3-(5-tert-butyl-2-p-tolyl-2H-pyrazol-3-yl)-urea] | < 0.1 µM
6 | < 0.1 µM | 0.1 to 1 µM | Cc1ccc(-n2nc(C(C)(C)C)cc2NC(=O)Nc2ccc(-c3csc4ncnc(N)c34)c(F)c2)cc1 [Example 6, 1-[4-(4-Amino-thieno[2,3-d]pyrimidin-5-yl)-3-fluoro-phenyl]-3-(5-tert-butyl-2-p-tolyl-2H-pyrazol-3-yl)-urea] | < 0.1 µM
7 | < 0.1 µM | < 0.1 µM | Cc1ccc(-n2nc(C(C)(C)C)cc2NC(=O)Nc2ccc(-c3csc4ncnc(N)c34)cc2F)cc1 [Example 7, 1-[4-(4-Amino-thieno[2,3-d]pyrimidin-5-yl)-2-fluoro-phenyl]-3-(5-tert-butyl-2-p-tolyl-2H-pyrazol-3-yl)-urea] | < 0.1 µM
8 | < 0.1 µM | < 0.1 µM | Cc1ccc(-n2nc(C(C)(C)C)cc2NC(=O)Nc2ccc(-c3nn(C)c4ncnc(N)c34)c(Cl)c2)cc1 [Example 8, 1-[4-(4-Amino-1-methyl-1H-pyrazolo[3,4-d]pyrimidin-3-yl)-3-chloro-phenyl]-3-(5-tert-butyl-2-p-tolyl-2H-pyrazol-3-yl)-urea] | < 0.1 µM
9 | < 0.1 µM | < 0.1 µM | CC(C)c1ccc(-n2nc(C(C)(C)C)cc2NC(=O)Nc2ccc(-c3nn(C)c4ncnc(N)c34)cc2F)cc1 [Example 9, 1-(4-{4-amino-1-methyl-1H-pyrazolo[3,4-d]pyrimidin-3-yl}-2-fluorophenyl)-3-{3-tert-butyl-1-[4-(propan-2-yl)phenyl]-1H-pyrazol-5-yl}urea] | < 0.1 µM
10 | < 0.1 µM | 0.1 to 1 µM | Cc1ccc(-n2nc(C(C)(C)C)cc2NC(=O)Nc2ccc(-c3csc4ncnc(N)c34)c(Cl)c2)cc1 [Example 10, 1-[4-(4-Amino-thieno[2,3-d]pyrimidin-5-yl)-3-chloro-phenyl]-3-(5-tert-butyl-2-p-tolyl-2H-pyrazol-3-yl)-urea] | < 0.1 µM
11 | < 0.1 µM | 1 to 5 µM | Cc1ccc(-n2nc(C(C)(C)C)cc2NC(=O)Nc2ccc(-c3csc4ncnc(N)c34)cc2Cl)cc1 [Example 11, 1-[4-(4-Amino-thieno[2,3-d]pyrimidin-5-yl)-2-chloro-phenyl]-3-(5-tert-butyl-2-p-tolyl-2H-pyrazol-3-yl)-urea] | < 0.1 µM
12 | < 0.1 µM | 0.1 to 1 µM | Cc1ccc(-n2nc(C(C)(C)C)cc2NC(=O)Nc2ccc(-c3csc4ncnc(N)c34)cc2)cc1 [Example 12, 1-[4-(4-Amino-thieno[2,3-d]pyrimidin-5-yl)-phenyl]-3-(5-tert-butyl-2-p-tolyl-2H-pyrazol-3-yl)-urea] | < 0.1 µM
13 | 0.1 to 1 µM | > 5 µM | Cc1ccc(-n2nc(C(F)(F)F)cc2NC(=O)Nc2ccc(-c3nn(C)c4ncnc(N)c34)c(F)c2)cc1 [Example 13, 1-[4-(4-Amino-1-methyl-1H-pyrazolo[3,4-d]pyrimidin-3-yl)-3-fluoro-phenyl]-3-(2-p-tolyl-5-trifluoromethyl-2H-pyrazol-3-yl)-urea] | 0.1 to 1 µM
14 | < 0.1 µM | 0.1 to 1 µM | CC(C)c1ccc(-n2nc(C(C)(C)C)cc2NC(=O)Nc2ccc(-c3nn(C)c4ccnc(N)c34)cc2)cc1 [Example 14, 1-[4-(4-Amino-1-methyl-1H-pyrazolo[4,3-c]pyridin-3-yl)-phenyl]-3-[5-tert-butyl-2-(4-isopropyl-phenyl)-2H-pyrazol-3-yl]-urea] | < 0.1 µM
15 | < 0.1 µM | < 0.1 µM | Cc1ccc(-n2nc(C(C)(C)C)cc2NC(=O)NC2CC=C(c3cn(C)c4ncnc(N)c34)CC2)cc1 (stereo not drawn) [Example 25, 1-[4-(4-Amino-7-methyl-7H-pyrrolo[2,3-d]pyrimidin-5-yl)-cyclohex-3-enyl]-3-(5-tert-butyl-2-p-tolyl-2H-pyrazol-3-yl)-urea] | –
16 | < 0.1 µM | 0.1 to 1 µM | Cn1nc(-c2ccc(NC(=O)Nc3cc(C(C)(C)C)nn3-c3ccc(C#N)cc3)c(Cl)c2)c2c(N)ncnc21 [Example 28, 1-(4-{4-amino-1-methyl-1H-pyrazolo[3,4-d]pyrimidin-3-yl}-2-chlorophenyl)-3-[3-tert-butyl-1-(4-cyanophenyl)-1H-pyrazol-5-yl]urea] | –
17 | < 0.1 µM | 0.1 to 1 µM | Cc1ccc(-n2nc(C(C)(C)C)cc2NC(=O)Nc2ccc(-c3nn(C)c4ncnc(N)c34)cc2Cl)cc1F [Example 29, 1-[4-(4-Amino-1-methyl-1H-pyrazolo[3,4-d]pyrimidin-3-yl)-2-chloro-phenyl]-3-[5-tert-butyl-2-(3-fluoro-4-methyl-phenyl)-2H-pyrazol-3-yl]-urea] | –
